Test results published in BindingDB's records for doi:10.1016/j.ejmech.2019.02.016 (National Health Research Institutes, 2019).

assay: Inhibition of NS5A in HCV genotype 1b infected in human HuH7 replicon cells assessed as reduction in subgenomic viral RNA replication treated for 2 days followed by compound washout and subsequent compound dosing measured after 1 day by SEAP reporter gene assay

Structure (SMILES) | EC50 [nM]
CN(C)CCC(=O)N[C@@H](C(=O)N1CCC[C@H]1c1ncc(-c2ccc(-c3ccc(-c4cnc([C@@H]5CCCN5C(=O)[C@H](NC(=O)CCN(C)C)c5ccccc5)s4)cc3)cc2)s1)c1ccccc1 | 2.5
CN(C)CCC(=O)N[C@H](C(=O)N1CCC[C@H]1c1ncc(-c2ccc(-c3ccc(-c4cnc([C@@H]5CCCN5C(=O)[C@H](NC(=O)CCN(C)C)c5ccccc5)s4)cc3)cc2)s1)c1ccccc1 | 6.9
COC(=O)N[C@H](C(=O)N1CCC[C@H]1c1ncc(-c2ccc(-c3ccc(-c4cnc([C@@H]5CCCN5C(=O)[C@@H](NC(=O)OC)C(C)C)s4)cc3)cc2)s1)C(C)C | 56
CN1CCN(CCC(=O)N[C@@H](C(=O)N2CCC[C@H]2c2ncc(-c3ccc(-c4ccc(-c5cnc([C@@H]6CCCN6C(=O)[C@H](NC(=O)CCN6CCN(C)CC6)c6ccccc6)s5)cc4)cc3)s2)c2ccccc2)CC1 | 7.2
CC(C)(C)[C@@H](NC(=O)C1CC1)C(=O)N1CCC[C@H]1c1ncc(-c2ccc(-c3ccc(-c4cnc([C@@H]5CCCN5C(=O)[C@H](NC(=O)C5CC5)C(C)(C)C)s4)cc3)cc2)s1 | 1600
CCC[C@H](NC(=O)OC)C(=O)N1CCC[C@H]1c1ncc(-c2ccc(-c3ccc(-c4cnc([C@@H]5CCCN5C(=O)[C@H](CCC)NC(=O)OC)s4)cc3)cc2)s1 | 123
CC(C)C(=O)N[C@H](C(=O)N1CCC[C@H]1c1ncc(-c2ccc(-c3ccc(-c4cnc([C@@H]5CCCN5C(=O)[C@H](NC(=O)C(C)C)c5ccccc5)s4)cc3)cc2)s1)c1ccccc1 | 0.31
O=C(N[C@H](C(=O)N1CCC[C@H]1c1ncc(-c2ccc(-c3ccc(-c4cnc([C@@H]5CCCN5C(=O)[C@H](NC(=O)c5ccsc5)c5ccccc5)s4)cc3)cc2)s1)c1ccccc1)c1ccsc1 | 122
CC(=O)N[C@@H](C(=O)N1CCC[C@H]1c1ncc(-c2ccc(-c3ccc(-c4cnc([C@@H]5CCCN5C(=O)[C@H](NC(C)=O)c5ccccc5)s4)cc3)cc2)s1)c1ccccc1 | 0.02
O=C(N[C@@H](C(=O)N1CCC[C@H]1c1ncc(-c2ccc(-c3ccc(-c4cnc([C@@H]5CCCN5C(=O)[C@H](NC(=O)c5ccsc5)c5ccccc5)s4)cc3)cc2)s1)c1ccccc1)c1ccsc1 | 0.53
O=C(N[C@@H](C(=O)N1CCC[C@H]1c1ncc(-c2ccc(-c3ccc(-c4cnc([C@@H]5CCCN5C(=O)[C@H](NC(=O)c5ccccc5)c5ccccc5)s4)cc3)cc2)s1)c1ccccc1)c1ccccc1 | 21
O=C(CCN1CCCCC1)N[C@@H](C(=O)N1CCC[C@H]1c1ncc(-c2ccc(-c3ccc(-c4cnc([C@@H]5CCCN5C(=O)[C@H](NC(=O)CCN5CCCCC5)c5ccccc5)s4)cc3)cc2)s1)c1ccccc1 | 0.89
CCC[C@@H](NC(=O)C1CC1)C(=O)N1CCC[C@H]1c1ncc(-c2ccc(-c3ccc(-c4cnc([C@@H]5CCCN5C(=O)[C@@H](CCC)NC(=O)C5CC5)s4)cc3)cc2)s1 | 92
O=C(N[C@H](C(=O)N1CCC[C@H]1c1ncc(-c2ccc(-c3ccc(-c4cnc([C@@H]5CCCN5C(=O)[C@H](NC(=O)N5CCCCC5)c5ccccc5)s4)cc3)cc2)s1)c1ccccc1)N1CCCCC1 | 1.9
O=C(CCN1CCCC1)N[C@@H](C(=O)N1CCC[C@H]1c1ncc(-c2ccc(-c3ccc(-c4cnc([C@@H]5CCCN5C(=O)[C@H](NC(=O)CCN5CCCC5)c5ccccc5)s4)cc3)cc2)s1)c1ccccc1 | 4
O=C(N[C@H](C(=O)N1CCC[C@H]1c1ncc(-c2ccc(-c3ccc(-c4cnc([C@@H]5CCCN5C(=O)[C@H](NC(=O)C5CC5)c5ccccc5)s4)cc3)cc2)s1)c1ccccc1)C1CC1 | 1.5
O=C(N[C@H](C(=O)N1CCC[C@H]1c1ncc(-c2ccc(-c3ccc(-c4cnc([C@@H]5CCCN5C(=O)[C@H](NC(=O)C5CCCC5)c5ccccc5)s4)cc3)cc2)s1)c1ccccc1)C1CCCC1 | 1.1
CC(C)C(=O)N[C@@H](C(=O)N1CCC[C@H]1c1ncc(-c2ccc(-c3ccc(-c4cnc([C@@H]5CCCN5C(=O)[C@H](NC(=O)C(C)C)c5ccccc5)s4)cc3)cc2)s1)c1ccccc1 | 0.009
CCCC(=O)N[C@H](C(=O)N1CCC[C@H]1c1ncc(-c2ccc(-c3ccc(-c4cnc([C@@H]5CCCN5C(=O)[C@H](NC(=O)CCC)c5ccccc5)s4)cc3)cc2)s1)c1ccccc1 | 0.77
O=C(N[C@@H](C(=O)N1CCC[C@H]1c1ncc(-c2ccc(-c3ccc(-c4cnc([C@@H]5CCCN5C(=O)[C@H](NC(=O)c5ccco5)c5ccccc5)s4)cc3)cc2)s1)c1ccccc1)c1ccco1 | 0.07
O=C(N[C@@H](C(=O)N1CCC[C@H]1c1ncc(-c2ccc(-c3ccc(-c4cnc([C@@H]5CCCN5C(=O)[C@H](NC(=O)c5ccoc5)c5ccccc5)s4)cc3)cc2)s1)c1ccccc1)c1ccoc1 | 0.08
O=C(N[C@H](C(=O)N1CCC[C@H]1c1ncc(-c2ccc(-c3ccc(-c4cnc([C@@H]5CCCN5C(=O)[C@H](NC(=O)N5CCOCC5)c5ccccc5)s4)cc3)cc2)s1)c1ccccc1)N1CCOCC1 | 1.1
CC(=O)N[C@H](C(=O)N1CCC[C@H]1c1ncc(-c2ccc(-c3ccc(-c4cnc([C@@H]5CCCN5C(=O)[C@H](NC(C)=O)c5ccccc5)s4)cc3)cc2)s1)c1ccccc1 | 0.59
O=C(CCn1cccc1)N[C@H](C(=O)N1CCC[C@H]1c1ncc(-c2ccc(-c3ccc(-c4cnc([C@@H]5CCCN5C(=O)[C@H](NC(=O)CCn5cccc5)c5ccccc5)s4)cc3)cc2)s1)c1ccccc1 | 0.23
C[C@@H](NC(=O)C1CC1)C(=O)N1CCC[C@H]1c1ncc(-c2ccc(-c3ccc(-c4cnc([C@@H]5CCCN5C(=O)[C@@H](C)NC(=O)C5CC5)s4)cc3)cc2)s1 | 115
CCCCC(=O)N[C@H](C(=O)N1CCC[C@H]1c1ncc(-c2ccc(-c3ccc(-c4cnc([C@@H]5CCCN5C(=O)[C@H](NC(=O)CCCC)c5ccccc5)s4)cc3)cc2)s1)c1ccccc1 | 7.6
O=C(N[C@@H](C(=O)N1CCC[C@H]1c1ncc(-c2ccc(-c3ccc(-c4cnc([C@@H]5CCCN5C(=O)[C@H](NC(=O)C5CCCCC5)c5ccccc5)s4)cc3)cc2)s1)c1ccccc1)C1CCCCC1 | 0.25
O=C(N[C@@H](C(=O)N1CCC[C@H]1c1ncc(-c2ccc(-c3ccc(-c4cnc([C@@H]5CCCN5C(=O)[C@H](NC(=O)N5CCCCC5)c5ccccc5)s4)cc3)cc2)s1)c1ccccc1)N1CCCCC1 | 0.016

Continued, values first:

EC50 [nM] | Structure (SMILES)
149 | CS(=O)(=O)N[C@H](C(=O)N1CCC[C@H]1c1ncc(-c2ccc(-c3ccc(-c4cnc([C@@H]5CCCN5C(=O)[C@H](NS(C)(=O)=O)c5ccccc5)s4)cc3)cc2)s1)c1ccccc1
1.4 | CC(C)(C)C(=O)N[C@@H](C(=O)N1CCC[C@H]1c1ncc(-c2ccc(-c3ccc(-c4cnc([C@@H]5CCCN5C(=O)[C@H](NC(=O)C(C)(C)C)c5ccccc5)s4)cc3)cc2)s1)c1ccccc1
27 | CC(C)C[C@@H](NC(=O)C1CC1)C(=O)N1CCC[C@H]1c1ncc(-c2ccc(-c3ccc(-c4cnc([C@@H]5CCCN5C(=O)[C@@H](CC(C)C)NC(=O)C5CC5)s4)cc3)cc2)s1
1.3 | O=C(N[C@H](C(=O)N1CCC[C@H]1c1ncc(-c2ccc(-c3ccc(-c4cnc([C@@H]5CCCN5C(=O)[C@H](NC(=O)N5CCCC5)c5ccccc5)s4)cc3)cc2)s1)c1ccccc1)N1CCCC1
1.4 | O=C(N[C@@H](C(=O)N1CCC[C@H]1c1ncc(-c2ccc(-c3ccc(-c4cnc([C@@H]5CCCN5C(=O)[C@H](NC(=O)c5cccs5)c5ccccc5)s4)cc3)cc2)s1)c1ccccc1)c1cccs1
327 | CCOC(=O)N[C@H](C(=O)N1CCC[C@H]1c1ncc(-c2ccc(-c3ccc(-c4cnc([C@@H]5CCCN5C(=O)[C@@H](NC(=O)OCC)C(C)C)s4)cc3)cc2)s1)C(C)C
2.6 | O=C(CCN1CCOCC1)N[C@H](C(=O)N1CCC[C@H]1c1ncc(-c2ccc(-c3ccc(-c4cnc([C@@H]5CCCN5C(=O)[C@H](NC(=O)CCN5CCOCC5)c5ccccc5)s4)cc3)cc2)s1)c1ccccc1
22 | CCN(CC)CCC(=O)N[C@H](C(=O)N1CCC[C@H]1c1ncc(-c2ccc(-c3ccc(-c4cnc([C@@H]5CCCN5C(=O)[C@H](NC(=O)CCN(CC)CC)c5ccccc5)s4)cc3)cc2)s1)c1ccccc1
57 | CC[C@H](NC(=O)OC)C(=O)N1CCC[C@H]1c1ncc(-c2ccc(-c3ccc(-c4cnc([C@@H]5CCCN5C(=O)[C@H](CC)NC(=O)OC)s4)cc3)cc2)s1
2.1 | O=C(N[C@H](C(=O)N1CCC[C@H]1c1ncc(-c2ccc(-c3ccc(-c4cnc([C@@H]5CCCN5C(=O)[C@H](NC(=O)c5cccnc5)c5ccccc5)s4)cc3)cc2)s1)c1ccccc1)c1cccnc1
237 | CCCC[C@H](NC(=O)OC)C(=O)N1CCC[C@H]1c1ncc(-c2ccc(-c3ccc(-c4cnc([C@@H]5CCCN5C(=O)[C@H](CCCC)NC(=O)OC)s4)cc3)cc2)s1
2.4 | CCCCCC(=O)N[C@H](C(=O)N1CCC[C@H]1c1ncc(-c2ccc(-c3ccc(-c4cnc([C@@H]5CCCN5C(=O)[C@H](NC(=O)CCCCC)c5ccccc5)s4)cc3)cc2)s1)c1ccccc1
433 | CC[C@@H](NC(=O)C1CC1)C(=O)N1CCC[C@H]1c1ncc(-c2ccc(-c3ccc(-c4cnc([C@@H]5CCCN5C(=O)[C@@H](CC)NC(=O)C5CC5)s4)cc3)cc2)s1
0.006 | O=C(N[C@@H](C(=O)N1CCC[C@H]1c1ncc(-c2ccc(-c3ccc(-c4cnc([C@@H]5CCCN5C(=O)[C@H](NC(=O)C5CCCC5)c5ccccc5)s4)cc3)cc2)s1)c1ccccc1)C1CCCC1
0.63 | O=C(N[C@H](C(=O)N1CCC[C@H]1c1ncc(-c2ccc(-c3ccc(-c4cnc([C@@H]5CCCN5C(=O)[C@H](NC(=O)c5ccoc5)c5ccccc5)s4)cc3)cc2)s1)c1ccccc1)c1ccoc1
0.007 | O=C(N[C@@H](C(=O)N1CCC[C@H]1c1ncc(-c2ccc(-c3ccc(-c4cnc([C@@H]5CCCN5C(=O)[C@H](NC(=O)C5CCC5)c5ccccc5)s4)cc3)cc2)s1)c1ccccc1)C1CCC1
0.011 | O=C(N[C@@H](C(=O)N1CCC[C@H]1c1ncc(-c2ccc(-c3ccc(-c4cnc([C@@H]5CCCN5C(=O)[C@H](NC(=O)c5ccncc5)c5ccccc5)s4)cc3)cc2)s1)c1ccccc1)c1ccncc1
0.2 | O=C(CCN1CCOCC1)N[C@@H](C(=O)N1CCC[C@H]1c1ncc(-c2ccc(-c3ccc(-c4cnc([C@@H]5CCCN5C(=O)[C@H](NC(=O)CCN5CCOCC5)c5ccccc5)s4)cc3)cc2)s1)c1ccccc1
0.031 | CCCCC(=O)N[C@@H](C(=O)N1CCC[C@H]1c1ncc(-c2ccc(-c3ccc(-c4cnc([C@@H]5CCCN5C(=O)[C@H](NC(=O)CCCC)c5ccccc5)s4)cc3)cc2)s1)c1ccccc1
